Laboratory results published in publication PMC10987639 (2024).

Legend:
[1] = system: yjdF riboswitch aptamer domain from R. gauvreauii, P2a loop modified for Fab BL3-6 binding (crystallization construct) (RNA, riboswitch) GGACAAAGAUAAAAACACAACGUAUGGCGAAACACGUCAUACAGAUCCGGUAGGUAGUCCGGACAUAAACAGCGGUAUAAAGCGCUGUUUAUAAGUAACCUUCCUCCUUAGGUCGUCCAUUCUUUGUC; assay: X-ray crystallography (2.77 Å); conditions: Mg2+, K+ (PDB ligands; concentrations not in material); co-crystal with Fab BL3-6, potassium osmate(VI) soak, pH 7.5; two ligand orientations
[2] = system: yjdF riboswitch aptamer domain from R. gauvreauii, P2a loop modified for Fab BL3-6 binding (crystallization construct) (RNA, riboswitch) GGACAAAGAUAAAAACACAACGUAUGGCGAAACACGUCAUACAGAUCCGGUAGGUAGUCCGGACAUAAACAGCGGUAUAAAGCGCUGUUUAUAAGUAACCUUCCUCCUUAGGUCGUCCAUUCUUUGUC; assay: X-ray crystallography (3.05 Å); conditions: Mg2+ (PDB ligand; concentration not in material); co-crystal with Fab BL3-6, pH 7.5; ligand orientation ambiguous

Structure (SMILES) | binding [1] | binding [2]
COc1ccc2c(c[n+](C)c3c4cc5c(cc4ccc23)OCO5)c1OC | yes | 
Nc1ccc2cc3ccc(N)cc3nc2c1 |  | yes
